Results from patent US12546785B2, “IL-17F and IL-17A-specific capture agents, compositions, and methods of using and making” (Regeneron Pharmaceuticals, Inc., priority 2017, dated 2026).
Numbered stars: 1 amine (or outer) side, 2 acyl side, 3 side chain; on linkers, the order of the positions; unused ones are H or OH. Bridge positions count the residues as written; N and C are the ends. Square brackets hold non-standard residues; d marks the D form. Triazole bridges read from a SMILES are 1,4-linked. Peptide text beside a SMILES is read from it. * marks the point of attachment. ξ: configuration not given here. Biotinyl(3aR,4R,6aS) = O=C1N[C@@H]2[C@@H](CS[C@@H]2CCCCC(=O)*)N1; Biotin = O=C1N[C@H]2[C@H](CS[C@H]2CCCCC(=O)*)N1; dLys(N3) = [N-]=[N+]=NCCCC[C@@H](N)C(=O)O; Lys(N3) = [N-]=[N+]=NCCCC[C@H](N)C(=O)O; Ethylenediamine = C(CN[*:2])N[*:1]; PEG5 = NCCOCCOCCOCCOCCOCCC(=O)O; ξY = NC(Cc1ccc(O)cc1)C(=O)O; AEEEA = NCCOCCOCCOCC(=O)O; ξR = N=C(N)NCCCC(N)C(=O)O; Pra = C#CC[C@H](N)C(=O)O; ξPra = C#CCC(N)C(=O)O; ξK = NCCCCC(N)C(=O)O; PEG1 = NCCOCCC(=O)O

Experiments:
[1] = biological target: T1, recombinant human IL-17A protein (Homo sapiens, UniProt Q16552); experiment: ELISA affinity against IL-17A; format: binding
T1 construct: His tag
T1 sequence (Q16552 24-155): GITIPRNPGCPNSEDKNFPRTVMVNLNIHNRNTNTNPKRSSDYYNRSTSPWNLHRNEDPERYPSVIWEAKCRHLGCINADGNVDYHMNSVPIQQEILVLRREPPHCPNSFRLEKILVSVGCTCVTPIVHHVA
Method: The affinity of macrocycle LA3 (SEQ ID NO:44) against recombinant human IL-17A protein was determined by ELISA.

[2] = biological target: Plasmodium falciparum Histidine Rich Protein-2 (Pf.HRP-2) (Plasmodium falciparum, UniProt P05227); experiment: biochemical; format: binding

CC(C)C[C@H]1NC(=O)[C@@H](CCCNC(=N)N)NC(=O)[C@@H](Cc2ccccc2)NC(=O)[C@@H](Cc2c[nH]cn2)NC(=O)[C@@H](CCCNC(=N)N)NC(=O)[C@@H](NC(=O)COCCOCCOCCNC(=O)CCCC[C@@H]2SC[C@@H]3NC(=O)N[C@@H]32)Cc2cn(nn2)CCCC[C@@H](C(N)=O)NC1=O [LA3] ({Biotin-AEEEA}-[Pra][dR][dH][dF][dR][dL][Lys(N3)]-NH2; triazole 1-7)
EC50 [1]: 4.5 ± 0.4 nM

CC(C)C[C@@H]1NC(=O)[C@H](CC(=O)O)NC(=O)[C@H](C(C)C)NC(=O)[C@H](CC(N)=O)NC(=O)[C@H](Cc2c[nH]c3ccccc23)NC(=O)CNC(=O)[C@](C)(NC(=O)[C@@H](N)CCCNC(=N)N)CCCCCC/C=C/CCC[C@@](C)(C(=O)N[C@@H](CCCCNC(=O)CCCC[C@@H]2SC[C@@H]3NC(=O)N[C@@H]32)C(=O)N[C@@H](CNC(=O)Cn2nncc2C[C@H](N)C(=O)N2CCC[C@@H]2C(=O)NCC(=O)N[C@H](CC(C)C)C(=O)N[C@H](CC(C)C)C(=O)N[C@H]2Cc3cn(nn3)CCCC[C@@H](C(N)=O)NC(=O)[C@H](CCCNC(=N)N)NC(=O)[C@H](Cc3ccc(O)cc3)NC(=O)[C@H](Cc3ccc(O)cc3)NC(=O)[C@H](CCCCN)NC(=O)[C@H](Cc3ccc(O)cc3)NC2=O)C(N)=O)NC1=O [cy(YKYYR)-linker-cy(GWNVDL)]
improvement over the better of the two ligand components ([2]; Pf.HRP-2): 100 fold

N=C(N)NCCCC1NC(=O)[C@@H](Cc2ccc(O)cc2)NC(=O)[C@@H](Cc2ccc(O)cc2)NC(=O)C(CCCCN)NC(=O)C(Cc2ccc(O)cc2)NC(=O)C(N)Cc2cn(nn2)CCCC[C@H](C(=O)NCCOCCC(=O)NC2Cc3cn(nn3)CCCC[C@H](C(=O)NCCOCCOCCOCCOCCOCCC(=O)NCCNC(=O)CCCC[C@H]3SC[C@H]4NC(=O)N[C@H]43)NC(=O)C(CCCNC(=N)N)NC(=O)[C@@H](Cc3ccc(O)cc3)NC(=O)[C@@H](Cc3ccc(O)cc3)NC(=O)C(CCCCN)NC(=O)C(Cc3ccc(O)cc3)NC2=O)NC1=O (stereo partly drawn) [linked biligand] (H-[ξPra][ξY][ξK][dY][dY][ξR][dLys(N3)][PEG1][ξPra][ξY][ξK][dY][dY][ξR][dLys(N3)][PEG5]-{Ethylenediamine-Biotinyl(3aR,4R,6aS)}; triazole 1-7, 9-15)
EC50 [2]: 20.8 ± 1.3 nM
